# Results: patent US20020034725A1, “SENSITIZATION OF CELLS TO RADIATION AND AND CHEMOTHERAPY” (priority 1996, published 2002)
# Columns and labels:
# H-ras^v12 = experiment: Western blot of H-ras farnesylation in H-ras transformed REF cells (3.7, 4R, 5R); assay type: cell-based, rat
# From the text: The oncogene-transfected cells used in this study were all derived from early passage rat embryo fibroblast (REF) by transfection with the pEJ plasmid containing the H-ras gene isolated from the EJ bladder carcinoma. This vector was introduced by calcium phosphate DNA transfer into primary REF, either alone or together with the pMC29 vector containing v-myc. One clone containing both the introduced H-ras gene and the v-myc genes is 3.7 (McKenna et al., 1990, Cancer Res. 50:97-102). 4R and 5R cells were obtained as rare transformants after transfection with the pEJ plasmid alone (McKenna et al., 1993, supra). MR4 cells were immortalized by transfection with an expression vector comprising v-myc linked to a neomycin-resistant selectable marker (McKenna et al., 1991, Radiat. Res. 125:283-287). REF-GG cells were obtained by transforming REF cells with a chimeric H-ras(v12) in which the CAAX motif is CVLL. All cell lines were mycoplasma free.
# Cells were lysed in culture dishes with 1 x reducing Laemmli sample buffer. Samples were boiled, sheared and clarified by centrifugation at 14,000 rpm in a microfuge before storage at −20° C. Samples containing equal amounts of protein were separated on a 12% SDS polyacrylamide gel and electrophoretically transferred to nitrocellulose membranes. Membranes were blocked for 1-2 hours in PBS containing 0.1% Tween-20 and 5% powdered milk before antibody addition. Membranes were probed with monoclonal pan-ras antibody AB-4 (Oncogene Science, Uniondale, N.Y.) at a concentration of 0.5 μg/ml, or with monoclonal H-ras antibody LA069 (1:5000 dilution; Quality Biotech, Camden, N.J.). Detection of protein was accomplished using the ECL chemiluminescence kit (Amersham, Arlington Heights, Ill.). Images were digitized using an Arcus II scanner, and figures were assembled using Adobe Photoshop 3.0.
# Transformed REF cells derived from the R5 cell line were treated with 5 μm FTI-277 to establish a time course for the accumulation of unfarnesylated H-ras. Prenylated forms of ras migrate more rapidly than unprenylated ras on SDSpolyacrylamide gels (Gutierrez et al., 1989, EMBO J. 8:1093-1098; Farh et al., 1995, Arch. Biochem. Biophys. 18:113-121). This shift in motility was used to assess the prenylation status of H-ras after farnesyltransferase inhibitor treatment.
# [1] = system: SW480 colon carcinoma cells; experiment: Clonogenic radiation survival of SW480 cells; assay type: cell-based, human; details: 30 μM FTI-277, 24 hours before irradiation
# Procedure: SW480 cells were treated for 24 hours with 30 μM FTI-277 before irradiation. Clonogenic survival was subsequently assessed in the cells. Treatment with the inhibitor was maintained for 24 hours after irradiation, at which time medium was replaced with inhibitor free medium. Control cells were treated as above with diluent. Open squares: control cells; closed squares: FTI-277 treated cells.
# FIG. 18B is a graph depicting a reduction in the radiation survival of SW480 cells following inhibition of K-ras prenylation by FTI-277 and GGTI-298. SW480 cells were treated for 24 hours with 5 μM FTI-277 and 8 μM GGTI-298 before irradiation and assessment of clonogenic survival. Inhibitor treatment was maintained for 24 hours after irradiation, at which time the medium was replaced with inhibitor free medium. Control cells were treated as above with an equal amount of drug-free diluent. Open squares: control cells; closed squares: FTI and GGTI treated cells.
# 3.7 and 5R cells = experiment: Cell growth after FTI-277 treatment; assay type: cell-based, rat
# Procedure: FIG. 15A is a graph depicting growth of primary REF cells (circles) and 3.7 cells (squares) after FTI-277 treatment. Two×10^5 cells were plated in medium containing 2.5 μM (3.7 cells) or 5 μM (REF cells) of FTI-277. […] Cells were harvested from replicate dishes at one day intervals and counted using a hemocytometer to determine the total cell number in each culture. Open symbols: DMSO (drug carrier) treated cells; closed symbols: FTI-277 treated cells.
# FIG. 15B is a graph depicting growth of MR4 cells (circles) and 5R cells (squares) following treatment with FTI-277 treatment. Three×10^5 cells were plated in medium containing 5 μM FTI-277. Cells were harvested from replicate dishes at one day intervals and counted using a hemocytometer to determine the total cell number in each culture. Open symbols: DMSO (drug carrier) treated cells; closed symbols: 5 μM FTI-277 treated cells.
# H-ras [2] = experiment: H-ras prenylation in human colon carcinomas grown in nude mice; assay type: in vivo, mouse; details: SW480 and LoVo tumors in nude mice, two intraperitoneal injections of 50 mg/kg
# Procedure: Expression of H-ras was detected by Western blot analysis using anti-H-ras monoclonal antibody of lysates of the human colon adenocarcinomas, SW480 and LoVo, grown in nude mice. Lysates were obtained from tumors excised from a vehicle (DMSO) treated mouse (Lane 1) and mice treated twice with intraperitoneal injections of 50 mg/kg of FTI-277 18 hours after treatment was initiated (Lanes 2 and 3). Lane 1 and 2: SW480, Lane 3: LoVo. The arrow denotes the migration of unfarnesylated H-ras.
# To examine the effectiveness of prenylation inhibitors in vivo in an animals, both rodent and human tumor responses to these inhibitors were examined in tumor grafts growing on nude mice. The protocols described in Hoffinan (1992, Curr, Perspect. on Molec. & Cell. Oncol. 1:311-326) were followed to establish and grow tumors in nude mice.
# To perform the assay, tumors were implanted and allowed to grow to approximately 125 mm^3. Mice having these tumors were then administered 50 mg/kg FTI-277 by intraperitoneal injection. Controls included mice which were injected with an equal volume of drug-free carrier solution. Two injections were given to each mouse, one at 18 hours and a second at 5 hours prior to sacrificing each mouse. The tumor ras prenylation status of the mice was subsequently assessed as described herein.
# H-ras [3] = experiment: Western blot of H-ras prenylation in SW480 cells; assay type: cell-based, human; details: 48 hours
# Procedure: FIG. 17A is an image of a Western blot depicting inhibition by FTI-277 of K-ras prenylation in human SW480 colon carcinoma cells. SW480 cells were treated with the indicated concentrations of FTI-277 (μM) for 48 hours. Samples were harvested and cell lysates were analyzed by Western blotting using either a H-ras monoclonal antibody (top) or a K-ras monoclonal antibody (bottom). Arrows indicate unfarnesylated ras bands.
smiles,measurement,setting,value
COC(=O)[C@H](CCSC)NC(=O)c1ccc(NC[C@@H](N)CS)cc1-c1ccccc1 [FTI-277],H-ras farnesylation status,"H-ras^v12; 3.7, 4R and 5R cells, 2.5 to 10 μm, 24 hours",primarily unfarnesylated
same,time by which detectable farnesylated H-ras was observed after removal of inhibitor,"H-ras^v12; 3.7 cells, 5 μm for 30 hours, then removed",≤ 2 h
same,H-ras in the farnesylated form after removal of inhibitor,"H-ras^v12; 3.7 cells, 6 hours after removal",about 50%
same,form of H-ras after removal of inhibitor,"H-ras^v12; 3.7 cells, 24 hours after removal",majority of the H-ras in the cells was in the farnesylated form
same,time by which conversion of H-ras to the slower moving form was observed,"H-ras^v12; 5R cells, 5 μm FTI-277",≤ 4 h
same,detectable H-ras in the unfarnesylated form,"H-ras^v12; 5R cells, 5 μm FTI-277, 6-8 hours after addition",approximately 50%
same,time to reversal of accumulation of unfarnesylated H-ras after removal of inhibitor,H-ras^v12; H-ras transformed REF cells,≤ 24 h
same,radiation survival,[1],reduction in radiation survival
same,cell growth,"3.7 and 5R cells; 3.7 cells, conditions of radiation survival experiments",some inhibition of cell growth
same,increase in cell number,"3.7 and 5R cells; 3.7 cells, day 4 after drug treatment",fifty-fold increase in cell number
same,cell growth,"3.7 and 5R cells; 5R cells, 5 μM",more resistant to growth inhibition
same,H-ras migration in tumors,H-ras [2],altered H-ras migration
same,lowest concentration with altered migration of H-ras,H-ras [3],2.5 µM
